The results in this text go back to ChEMBL document CHEMBL1152307, “Antimycobacterial and H1-antihistaminic activity of 2-substituted piperidine derivatives” (Bioorg Med Chem, 2008).

Molecules are shown by their SMILES. Values after ≈ are worked out from the molar mass of the structure shown.

In series [1] the test system is Mycobacterium tuberculosis. Description: Antimycobacterial activity against Mycobacterium tuberculosis H37Rv at 6.25 ug/ml after 4 days by microplate alamar blue assay. The class given is functional. Conditions: 96 h.
In series [2] the test system is Mycobacterium tuberculosis. Nature of the series: Antimycobacterial activity against Mycobacterium tuberculosis H37Rv after 4 days by microplate alamar blue assay. The format is functional. Conditions: 96 h. A general note: The colour change of resazurin is a common sign of viable cells or microbes.
Series [3] can be described thus: Cytotoxicity against HEK293 cells after 72 hrs by MTT assay. Particulars: human, read-out: LC50. The class given is cell-based. (In general: Tetrazolium dyes change colour on reduction, which living cells bring about.)
For series [4], the target named is Histamine H1 receptor (Cavia porcellus) (UniProt P31389). Description: Antagonist activity at guinea pig ileum histamine H1 receptor at 0.3 x 10'4 M. The class given is functional, tissue-based.
Sequence of Histamine H1 receptor (Cavia porcellus) (P31389 whole entry): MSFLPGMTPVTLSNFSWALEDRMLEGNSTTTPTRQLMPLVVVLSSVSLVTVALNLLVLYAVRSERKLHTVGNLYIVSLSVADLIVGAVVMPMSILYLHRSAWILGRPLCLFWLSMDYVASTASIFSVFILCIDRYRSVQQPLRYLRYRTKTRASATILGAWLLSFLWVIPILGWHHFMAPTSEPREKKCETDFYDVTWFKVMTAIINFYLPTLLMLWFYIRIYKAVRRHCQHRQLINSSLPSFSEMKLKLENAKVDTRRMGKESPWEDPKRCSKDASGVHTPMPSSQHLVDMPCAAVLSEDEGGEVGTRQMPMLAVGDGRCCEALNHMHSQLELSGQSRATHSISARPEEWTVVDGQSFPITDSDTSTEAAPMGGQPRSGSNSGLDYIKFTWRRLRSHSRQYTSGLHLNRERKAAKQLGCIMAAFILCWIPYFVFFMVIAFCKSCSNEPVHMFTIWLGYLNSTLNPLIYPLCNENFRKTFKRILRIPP

For `CN1CC[C@H](N(Cc2ccccc2)c2ccccc2)CC1(C)C`, the inhibition – broadly, the drop in the measured response relative to a control, in per cent – at 6.25 µg/mL in series [1] was found to be 31%. In addition, the MIC (commonly the lowest concentration found to suppress growth) in series [2] is > 6.25 µg/mL. Also, the CC50 at 72 h in series [3] came to 69.5 µg/mL (≈ 225 µM).

In turn, `COc1ccc(N(Cc2ccccc2)[C@H]2CCN(C)C(C)(C)C2)cc1` registered an inhibition at 6.25 µg/mL in series [1] of 26%. Moreover, the MIC in series [2] was > 6.25 µg/mL. Also, the CC50 at 72 h in series [3] stood at 82 µg/mL (≈ 242 µM).

Turning to `CC1(C)C[C@@H](N(Cc2ccccc2)c2ccccc2)CCN1c1ccccc1`, the pKb (usually the negative decadic logarithm of the Kb, by convention in mol/L) in series [4] was found to be 5. The compound also yielded an inhibition at 6.25 µg/mL in series [1] of 91%. For the same compound, the MIC in series [2] was 6.25 µg/mL (≈ 16.9 µM). The CC50 at 72 h in series [3] was determined as 108 µg/mL (≈ 291 µM).

In the case of `CN1CC[C@H](OC(c2ccccc2)c2ccccc2)CC1(C)C`, the pKb in series [4] is 8.19.

`c1ccc(CN(c2ccccc2)[C@H]2CCN(c3ccccc3)[C@@H](c3ccccc3)C2)cc1` (relative stereo) returned an inhibition at 6.25 µg/mL in series [1] of 37%. In series [2], the MIC was > 6.25 µg/mL. Besides, the CC50 at 72 h in series [3] was > 28 µg/mL.

As for `CC(C)[C@H]1C[C@@H](N(Cc2ccccc2)c2ccccc2)CCN1C` (relative stereo), the inhibition at 6.25 µg/mL in series [1] stood at 66%. For the same compound, the MIC in series [2] was > 6.25 µg/mL. Moreover, the CC50 at 72 h in series [3] turned out to be 35.9 µg/mL (≈ 111 µM).

In the case of `CC(C)[C@H]1C[C@@H](N(Cc2ccccc2)c2ccccc2)CCN1c1ccccc1` (relative stereo), the inhibition at 6.25 µg/mL in series [1] is 7%. For the same compound, the MIC in series [2] is > 6.25 µg/mL. Also, in series [3], the CC50 at 72 h was 127 µg/mL (≈ 330 µM).

Compound `c1ccc(CN(c2ccccc2)[C@H]2CCN(c3ccccc3)[C@H](c3ccccc3)C2)cc1` (relative stereo) gave an inhibition at 6.25 µg/mL in series [1] of 22%. For the same compound, the MIC in series [2] was > 6.25 µg/mL. Also, the CC50 at 72 h in series [3] is > 28 µg/mL.

`CC(C)[C@@H]1C[C@@H](N(Cc2ccccc2)c2ccccc2)CCN1c1ccccc1` (relative stereo): testing at 6.25 µg/mL in series [1] gave an inhibition of 52%. The MIC in series [2] was > 6.25 µg/mL. In addition, the CC50 at 72 h in series [3] is > 28 µg/mL.

As to `CN1CCC(N(Cc2ccccc2)c2ccccc2)CC1` [BAMIPINE], in series [1], the inhibition at 6.25 µg/mL worked out at 29%. Moreover, the MIC in series [2] was > 6.25 µg/mL. Moreover, the CC50 at 72 h in series [3] came to 64.1 µg/mL (≈ 229 µM).

In series [2], `NNC(=O)c1ccncc1` [ISONIAZID] had an MIC of 0.025 µg/mL (≈ 0.182 µM). In series [3], the CC50 at 72 h was > 200 µg/mL.

For `CO[C@H]1/C=C/O[C@@]2(C)Oc3c(C)c(O)c4c(O)c(c(/C=N/N5CCN(C)CC5)c(O)c4c3C2=O)NC(=O)/C(C)=C\C=C\[C@H](C)[C@H](O)[C@@H](C)[C@@H](O)[C@@H](C)[C@H](OC(C)=O)[C@@H]1C` [RIFAMPIN], inhibition of growth in series [2] (MIC) required 0.06 µg/mL (≈ 0.0729 µM). In series [3], the CC50 at 72 h was > 200 µg/mL.
